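96-well plates; 48 h exposure; 5 concentrations. Endpoints by linear interpolation between flanking doses. Not reached: highest tested concentration assigned. The concentration for 50% growth inhibition is given as GI50.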 Activity calls are given as the source filed them. Rule as the data show it: active = GI50 up to about 1.1 µM and inactive = higher.
What was measured:
Assay in all cases: inhibition of tumour cell growth, NCI panel, 48 h
SN12C = test system: SN12C
IGROV-1 = test system: IGROV-1
SK-OV-3 = test system: SK-OV-3
RXF 393 = test system: RXF 393
RPMI-8226 = test system: RPMI-8226
COLO 205 = test system: COLO 205
SW-620 = test system: SW-620
TK-10 = test system: TK-10
T47D = test system: T47D
OVCAR-8 = test system: OVCAR-8
NCI-H226 = test system: NCI-H226
Malme-3M = test system: Malme-3M
SR = test system: SR
HCT-116 = test system: HCT-116
786-0 = test system: 786-0
HL-60 = test system: HL-60
UACC-257 = test system: UACC-257
CCRF-CEM = test system: CCRF-CEM
UACC-62 = test system: UACC-62
NCI-H460 = test system: NCI-H460

SMILES	GI50 (SN12C)	GI50 (IGROV-1)	GI50 (SK-OV-3)	GI50 (RXF 393)	GI50 (RPMI-8226)	GI50 (COLO 205)	GI50 (SW-620)	GI50 (TK-10)	GI50 (T47D)	GI50 (OVCAR-8)	GI50 (NCI-H226)	GI50 (Malme-3M)	GI50 (SR)	GI50 (HCT-116)	GI50 (786-0)	GI50 (HL-60)	GI50 (UACC-257)	GI50 (CCRF-CEM)	GI50 (UACC-62)	GI50 (NCI-H460)
NC(Cc1cc(Br)c(O)c(Br)c1)C(=O)O (stereo not given)	> 100 µM (inactive)	> 100 µM (inactive)	> 100 µM (inactive)	> 100 µM (inactive)	> 100 µM (inactive)	> 100 µM (inactive)	> 100 µM (inactive)	> 100 µM (inactive)	> 100 µM (inactive)	> 100 µM (inactive)	> 100 µM (inactive)	> 100 µM (inactive)	> 100 µM (inactive)	> 100 µM (inactive)	> 100 µM (inactive)	> 100 µM (inactive)	> 100 µM (inactive)	> 100 µM (inactive)	> 100 µM (inactive)	> 100 µM (inactive)
CN1CCC23c4c5ccc(Oc6nnnn6-c6ccccc6)c4OC2c2[nH]c4ccccc4c2CC3(O)C1C5 (stereo not given)	2.75 µM (inactive)	8.83 µM (inactive)	9.66 µM (inactive)	2.28 µM (inactive)	2.22 µM (inactive)	2.29 µM (inactive)	2.44 µM (inactive)	1.87 µM (inactive)	6.71 µM (inactive)	2.86 µM (inactive)	10.8 µM (inactive)	1.67 µM (inactive)	1.64 µM (inactive)	1.83 µM (inactive)	1.77 µM (inactive)	1.81 µM (inactive)	1.83 µM (inactive)	2.08 µM (inactive)	1.8 µM (inactive)	1.85 µM (inactive)
O=c1[nH]c2cc([N+](=O)[O-])c(Nc3c4ccccc4nc4ccccc34)c([N+](=O)[O-])c2[nH]1	2.17 µM (inactive)	0.238 µM (active)	4.04 µM (inactive)	2.42 µM (inactive)	2.55 µM (inactive)	2.1 µM (inactive)	2.31 µM (inactive)	1.92 µM (inactive)	2.49 µM (inactive)	2.43 µM (inactive)	3.13 µM (inactive)	1.77 µM (inactive)	1.74 µM (inactive)	0.82 µM (active)	2.39 µM (inactive)	3.1 µM (inactive)	4.03 µM (inactive)	4.42 µM (inactive)	1.6 µM (inactive)	2.36 µM (inactive)
C1=N\CCNCCNCC/N=C\c2ccc(cc2)OCc2cccc(n2)COc2ccc/1cc2	> 100 µM (inactive)	> 100 µM (inactive)	> 100 µM (inactive)	> 100 µM (inactive)	53.6 µM (inactive)	> 100 µM (inactive)	95.5 µM (inactive)		53.3 µM (inactive)	> 100 µM (inactive)	> 100 µM (inactive)	> 100 µM (inactive)	50.5 µM (inactive)	> 100 µM (inactive)	> 100 µM (inactive)	67.9 µM (inactive)	88.5 µM (inactive)	27.6 µM (inactive)	> 100 µM (inactive)	73.6 µM (inactive)
COC(=O)/C=C\C(C#N)(C#N)/N=C/c1sccc1C	8.59 µM (inactive)	15 µM (inactive)	18.4 µM (inactive)	2 µM (inactive)	5.04 µM (inactive)	1.22 µM (inactive)	1.58 µM (inactive)	1.86 µM (inactive)	2.62 µM (inactive)	2.47 µM (inactive)	3.33 µM (inactive)	3.18 µM (inactive)	2.36 µM (inactive)	2.43 µM (inactive)	1.94 µM (inactive)	1.88 µM (inactive)	11.1 µM (inactive)	1 µM (active)	6.62 µM (inactive)	16.4 µM (inactive)
S=c1nc(N/N=C/c2cccs2)c2cn[nH]c2[nH]1	32.3 µM (inactive)	20.2 µM (inactive)	> 100 µM (inactive)	16.1 µM (inactive)	5.04 µM (inactive)	6.87 µM (inactive)	37.1 µM (inactive)	17.9 µM (inactive)	23.7 µM (inactive)	25.6 µM (inactive)	92 µM (inactive)	41.4 µM (inactive)	11.8 µM (inactive)	16.2 µM (inactive)	27.9 µM (inactive)	76.4 µM (inactive)	35.7 µM (inactive)		25.4 µM (inactive)	0.134 µM (active)
CCOC(=O)C(C(=O)OCC)=C1SC(=N\c2ccccc2)/C(=N/c2ccccc2)N1c1ccccc1	> 100 µM (inactive)	> 100 µM (inactive)	> 100 µM (inactive)	28.2 µM (inactive)	> 100 µM (inactive)	> 100 µM (inactive)			> 100 µM (inactive)	> 100 µM (inactive)	> 100 µM (inactive)	> 100 µM (inactive)	> 100 µM (inactive)	> 100 µM (inactive)	> 100 µM (inactive)	> 100 µM (inactive)		18.4 µM (inactive)	53.6 µM (inactive)	> 100 µM (inactive)

From ChEMBL document CHEMBL1201862, “PubChem BioAssay data set” (2004)
